Patent US8722697B2, “Pharmaceutical composition for treating hypertension and metabolic syndrome and use thereof” (Lunan Pharmaceutical Group Corporation, priority 2008, dated 2014)

Key:
[1] = test system: calcium channel; conditions: background statement; cited from earlier work
[2] = test system: spontaneously hypertensive rats; test: Tail arterial blood pressure of conscious spontaneously hypertensive rats; type: in vivo, rat; conditions: X ± S, n = 8
Description: (§1) Forty-eight spontaneously hypertensive rats (male, body weight (300±20) g, provided by Pharmacological Center for New Medicine of Shandong New Time Pharmaceutical Co., Ltd.) were fed for one week for acclimation, and then randomly divided into six groups with eight animals in each group.
(§2) Model control group: intragastric administration of same volume of physiological saline;
(§3) P group: 1 mg/(kg·d) of pioglitazone;
(§4) A+R group: 2 mg/(kg·d) of amlodipine+1 mg/(kg·d) of rosuvastatin calcium;
(§5) P+R group: 1 mg/(kg·d) of pioglitazone+1 mg/(kg·d) of rosuvastatin calcium;
(§6) Pharmaceutical composition of the present invention: 2 mg/(kg·d) of amlodipine+1 mg/(kg·d) of pioglitazone+1 mg/(kg·d) of rosuvastatin calcium;
(§7) Each group was given intragastric administration once every day for ten weeks. During the experiment, the diet, survival status and behaviors of the animals were recorded, and the animals were weighted once every day and the doses of administration were adjusted according to the body weights. Animals were sacrificed after ten weeks, and their hearts were taken out to determine the weights of left ventricles and calculate left ventricular indexes.
Blood pressures were measured five times between two and five hours after intragastric administration in the first week, the third week and the sixth week, respectively. The average value of the blood pressures was used as the blood pressure of the sample.

[3] = test system: spontaneously hypertensive rats; test: Cardiac hypertrophy (left ventricular weight/body weight) in spontaneously hypertensive rats; type: in vivo, rat; conditions: after ten weeks of intragastric administration once daily; X ± S, n = 8
Description: as §1, §2, §3, §4, §5, §6, §7
After being sacrificed with 10% potassium chloride (2 mmol/L, 1 ml/rat), the rats were weighed. […] The left ventricular was weighed after the atria were removed, and a ratio of left ventricular weight to body weight was calculated.

[4] = test system: spontaneously hypertensive rats; test: Urinary microalbumin (bromophenol blue absorbance) in spontaneously hypertensive rats; type: in vivo, rat; conditions: intragastric once daily, high sugar and high fat diets, doses per group b107-b111; twelve-hour overnight urine; week not stated; X ± S, n = 8
Source text: as §2

[5] = test system: spontaneously hypertensive rats; test: Carotid intima-media thickness in spontaneously hypertensive rats; type: in vivo, rat; conditions: carotid artery; intragastric once daily for six months, high sugar and high fat diets; X ± S, n = 8
Description: Forty-eight spontaneously hypertensive rats (male, body weight (300±20) g, provided by the Pharmacological Center for New Medicine of Shandong New Time Pharmaceutical Co., Ltd.) were fed for one week for acclimation, and then randomly divided into six groups with eight rats in each group.
as §2
P group: intragastric administration of 2 mg/(kg·d) of pioglitazone;
LA+R group: intragastric administration of 1 mg/(kg·d) of levo-amlodipine+1 mg/(kg·d) of rosuvastatin calcium;
P+R group: intragastric administration of 2 mg/(kg·d) of pioglitazone+1 mg/(kg·d) of rosuvastatin calcium;
LA group: intragastric administration of 1 mg/(kg·d) of levo-amlodipine;
Pharmaceutical composition of the present invention: intragastric administration of 1 mg/(kg·d) of levo-amlodipine+2 mg/(kg·d) of pioglitazone+1 mg/(kg·d) of rosuvastatin calcium;
Each group was given intragastric administration once every day and fed with high sugar and high fat diets for six months. During the experiment, the diet, survival status and behaviors of the animals were recorded, and the animals were weighed once every week and the doses of administration were adjusted according to the body weights.
After the animal was anesthetized and fixed, Even's blue (60 mg/kg) dye was injected via a femoral artery. […]

[6] = test system: patients suffered from metabolic syndrome; test: Clinical treatment of patients suffered from metabolic syndrome; type: in vivo, human; conditions: X ± S
Source text: Eighty-eight metabolic syndrome patients were selected from those received treatment in Linyi People's Hospital from May 2007 to May 2008, and randomly divided into a control group and an experimental group.
Control group: twenty-eight males and sixteen females, whose ages were between 62 and 71 and whose body mass indexes (BMI) were between 25.5 and 30;
Experimental group: twenty-four males and twenty females, whose ages were between 60 and 70 and whose body mass indexes (BMI) were between 24.5 and 31;
Before the treatment, all patients were subjected to blood lipids (including total cholesterol (TC), high-density lipid cholesterol (HDLC)) analysis, and detection of glycated hemoglobin (HbAlC), fasting blood glucose (FBG), fasting insulin (FINS) and fibrinogen (Fg).
Patients suffered from metabolic syndrome were selected according to the diagnostic standards for type-II diabetes mellitus and hypertension made by WHO in 1999 and referring to the diagnostic standards for metabolic syndrome made by US National Cholesterol Education Program Adult Treatment Panel (NCEP-ATP III) in 2000, while cases of […], heart failure (above grade II), diseases in liver, kidney and blood system and like were excluded.
Patients in the control group were administrated with 15 mg of pioglitazone once every day, and patients in the experimental group were administrated with 5 mg of amlodipine, 7.5 mg of pioglitazone and 5 mg of rosuvastatin calcium, i.e. the proportions as described in Example 1, once every day. After eight weeks of continuous treatment, all of the above parameters were re-determined, in which blood glucose was determined with hexokinase method, blood lipid was determined with esterase method, fibrinogen was determined with coagulation method and chromogenic substrate assay, HbAlC was determined with chromatography, and fasting insulin was determined with chemiluminescence immunoassay.
Statistical analysis: SPSS software was employed, and test of significance was performed by using a paired sample t test.

[7] = intragastric once daily, 2-5 h after administration

Compound | Activity relative to the dextroisomer [1] | Activity relative to the racemate [1] | Blood pressure, before treatment ([2]; baseline before treatment) | Blood pressure after treatment, first week [2, 7] | Blood pressure after treatment, sixth week [2, 7] | Blood pressure after treatment, third week [2, 7] | Left ventricular weight [3] | Left ventricular weight/body weight (×10^−3) [3] | Urinary microalbumin, Absorbance A (600 nm) [4] | Maximum intima thickness [5] | Ratio of intima to media thickness [5] | FINS (fasting insulin), after treatment ([6]; after eight weeks, once every day, chemiluminescence immunoassay) | HbAlC (glycated hemoglobin), after treatment ([6]; after eight weeks, once every day, chromatography) | Fg (fibrinogen), after treatment ([6]; after eight weeks, once every day, coagulation method and chromogenic substrate assay) | FBG (fasting blood glucose), after treatment ([6]; after eight weeks, once every day, hexokinase method) | FINS (fasting insulin), before treatment ([6]; baseline before treatment, chemiluminescence immunoassay) | HbAlC (glycated hemoglobin), before treatment ([6]; baseline before treatment, chromatography) | Fg (fibrinogen), before treatment ([6]; baseline before treatment, coagulation method and chromogenic substrate assay) | FBG (fasting blood glucose), before treatment ([6]; baseline before treatment, hexokinase method)
levo-amlodipine [A Group] | 1000 times | twice as high as that of the racemate | – | – | – | – | – | – | – | – | – | – | – | – | – | – | – | – | –
CCc1ccc(CCOc2ccc(CC3SC(=O)NC3=O)cc2)nc1 (stereo not shown) [P group, pioglitazone] | – | – | 151 ± 7.6 mmHg | 157 ± 8.6 mmHg | 170 ± 8.8 mmHg | 162 ± 10.3 mmHg | 0.99 ± 0.10 g | 3.33 ± 0.19 ×10^−3 | 0.568 ± 0.125^• | 0.130 ± 0.026 mm | 2.246 ± 0.361 | 25.68 ± 5.34 mlU/L | 6.39 ± 0.56% | 392.6 ± 64.51 mg/dL | 6.63 ± 1.65 mmol/L | 32.4 ± 7.21 mlU/L | 6.89 ± 0.65% | 419.6 ± 89.62 mg/dL | 7.12 ± 2.06 mmol/L
